In ChEMBL document CHEMBL1128909, “Catechol based inhibitors of 15-lipoxygenase” (Bioorg Med Chem Lett, 1996):

Columns and labels:
[1] = molecular target: T1, Polyunsaturated fatty acid lipoxygenase ALOX12 (Homo sapiens, UniProt P18054); test: Inhibitory activity against human platelet 12-lipoxygenase
T1 sequence (P18054 whole entry): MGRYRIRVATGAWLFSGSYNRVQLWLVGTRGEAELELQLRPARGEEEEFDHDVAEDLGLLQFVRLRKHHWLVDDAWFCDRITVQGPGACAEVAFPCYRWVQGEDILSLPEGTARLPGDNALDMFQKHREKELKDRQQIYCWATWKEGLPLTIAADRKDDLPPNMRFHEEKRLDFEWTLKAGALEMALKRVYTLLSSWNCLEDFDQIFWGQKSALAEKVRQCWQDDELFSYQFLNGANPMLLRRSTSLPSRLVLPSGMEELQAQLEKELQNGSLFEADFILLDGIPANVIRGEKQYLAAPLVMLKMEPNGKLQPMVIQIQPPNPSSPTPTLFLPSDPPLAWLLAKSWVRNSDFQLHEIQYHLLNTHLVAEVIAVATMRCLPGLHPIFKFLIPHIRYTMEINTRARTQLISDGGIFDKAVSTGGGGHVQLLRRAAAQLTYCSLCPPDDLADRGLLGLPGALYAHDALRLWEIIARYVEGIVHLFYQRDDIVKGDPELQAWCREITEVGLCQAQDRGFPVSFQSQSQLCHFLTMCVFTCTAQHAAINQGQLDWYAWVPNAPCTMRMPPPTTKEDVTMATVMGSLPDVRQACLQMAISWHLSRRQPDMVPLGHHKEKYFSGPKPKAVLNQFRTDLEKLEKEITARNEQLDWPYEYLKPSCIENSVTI

[2] = molecular target: T2, Polyunsaturated fatty acid 5-lipoxygenase (Rattus norvegicus, UniProt P12527); test: Inhibitory activity against rat basophilic leukemia cell 5-lipoxygenase (5-LO)
T2 sequence (P12527 whole entry): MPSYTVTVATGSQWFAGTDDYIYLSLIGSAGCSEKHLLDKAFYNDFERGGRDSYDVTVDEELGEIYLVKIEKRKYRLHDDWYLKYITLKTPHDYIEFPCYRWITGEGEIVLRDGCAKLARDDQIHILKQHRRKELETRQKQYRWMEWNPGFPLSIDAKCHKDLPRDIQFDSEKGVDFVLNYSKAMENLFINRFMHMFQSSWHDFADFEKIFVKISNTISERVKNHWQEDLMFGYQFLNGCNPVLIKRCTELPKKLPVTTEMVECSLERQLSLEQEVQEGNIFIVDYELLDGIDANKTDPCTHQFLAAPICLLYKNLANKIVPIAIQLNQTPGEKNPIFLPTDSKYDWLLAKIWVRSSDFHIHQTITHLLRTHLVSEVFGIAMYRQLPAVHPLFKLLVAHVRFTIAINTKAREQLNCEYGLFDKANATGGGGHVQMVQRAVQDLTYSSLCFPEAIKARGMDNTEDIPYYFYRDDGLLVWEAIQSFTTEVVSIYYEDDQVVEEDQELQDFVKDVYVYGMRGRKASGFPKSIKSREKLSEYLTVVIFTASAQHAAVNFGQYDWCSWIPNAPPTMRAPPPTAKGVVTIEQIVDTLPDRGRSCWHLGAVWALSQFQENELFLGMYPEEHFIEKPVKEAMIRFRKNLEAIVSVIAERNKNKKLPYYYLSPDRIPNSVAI

## O=C(Nc1ccc(CCc2ccc(O)c(O)c2)cc1)c1ccccc1O
[1]
  IC50: 5 µM
[2]
  IC50: 0.28 µM
